Test system: 324938-238-R-J1-PDC complex spheroid viability
Assay: Anticancer human tumor 324938-238-R-J1-PDC patient-derived bladder carcinoma cell line growth inhibition
Conditions: for IC50: curve of first compound; for viability, T/C: stronger effect = lower value
Method in brief: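 Multicellular complex spheroids of tumor cells with human endothelial cells (HUVEC) and mesenchymal stem cells; the LSD1 inhibitor iadademstat was combined with standard-of-care or investigational agents. Top concentration at or near clinical Cmax, half-log dilutions; final DMSO ≤0.25%.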

[1] = second compound 0.1 µM, first compound 0.00949 µM
[2] = second compound 0.1 µM, first compound 0.03 µM
[3] = second compound 0.1 µM, first compound 0.0949 µM
[4] = second compound 0.1 µM, first compound 0.3 µM
[5] = second compound 0.1 µM, first compound 0.949 µM
[6] = second compound 0.1 µM, first compound 3 µM
[7] = second compound 0.316 µM, first compound 0.00949 µM
[8] = second compound 0.316 µM, first compound 0.03 µM
[9] = second compound 0.316 µM, first compound 0.0949 µM
[10] = second compound 0.316 µM, first compound 0.3 µM
[11] = second compound 0.316 µM, first compound 0.949 µM
[12] = second compound 0.316 µM, first compound 3 µM
[13] = second compound 1 µM, first compound 0.00949 µM
[14] = second compound 1 µM, first compound 0.03 µM
[15] = second compound 1 µM, first compound 0.0949 µM
[16] = second compound 1 µM, first compound 0.3 µM
[17] = second compound 1 µM, first compound 0.949 µM
[18] = second compound 1 µM, first compound 3 µM
[19] = second compound 3.16 µM, first compound 0.00949 µM
[20] = second compound 3.16 µM, first compound 0.03 µM
[21] = second compound 3.16 µM, first compound 0.0949 µM
[22] = second compound 3.16 µM, first compound 0.3 µM
[23] = second compound 3.16 µM, first compound 0.949 µM
[24] = second compound 3.16 µM, first compound 3 µM
[25] = second compound 10 µM, first compound 0.00949 µM
[26] = second compound 10 µM, first compound 0.03 µM
[27] = second compound 10 µM, first compound 0.0949 µM
[28] = second compound 10 µM, first compound 0.3 µM
[29] = second compound 10 µM, first compound 0.949 µM
[30] = second compound 10 µM, first compound 3 µM
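Note: spheroids also contain HUVEC and human MSCs and agents combined with iadademstat; spheroids exposed to agents for 7 days before readout.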

SMILES | IC50 (second compound 0.1 µM) [nM] | IC50 (second compound 0.316 µM) [nM] | IC50 (second compound 1 µM) [nM] | IC50 (second compound 3.16 µM) [nM] | IC50 (second compound 10 µM) [nM] | viability, T/C [1] [%] | viability, T/C [2] [%] | viability, T/C [3] [%] | viability, T/C [4] [%] | viability, T/C [5] [%] | viability, T/C [6] [%] | viability, T/C [7] [%] | viability, T/C [8] [%] | viability, T/C [9] [%] | viability, T/C [10] [%] | viability, T/C [11] [%] | viability, T/C [12] [%] | viability, T/C [13] [%] | viability, T/C [14] [%] | viability, T/C [15] [%] | also measured
NS(=O)(=O)OCC1CC(n2ccc3c(NC4CCc5ccccc54)ncnc32)CC1O (stereo not given) + NC1CC1c1ccc(-c2cccc(O)c2)cc1 | 327 | 230 | 299 | 300 | 334 | 97.7 | 101 | 95.1 | 53.2 | 12.4 | 12 | 84.6 | 84.8 | 76 | 42.7 | 12.5 | 11.9 | 95.6 | 77.8 | 84.8 | viability, T/C [16]: 49.9%; viability, T/C [17]: 11.3%; viability, T/C [18]: 9.03%; viability, T/C [19]: 88.9%; viability, T/C [20]: 93.6%; viability, T/C [21]: 86.4%; viability, T/C [22]: 50.3%; viability, T/C [23]: 12.2%; viability, T/C [24]: 9.8%; viability, T/C [25]: 74.8%; viability, T/C [26]: 86.4%; viability, T/C [27]: 80.1%; viability, T/C [28]: 52.6%; viability, T/C [29]: 19.7%; viability, T/C [30]: 12.4%
O=C(C=Cc1cccc(S(=O)(=O)Nc2ccccc2)c1)NO + NC1CC1c1ccc(-c2cccc(O)c2)cc1 | 160 | 111 | 87.4 | 106 | 29.5 | 84.3 | 75.3 | 59.1 | 36.2 | 24.5 | 3.13 | 69 | 64.2 | 52.6 | 34.6 | 21.9 | 2.23 | 62.6 | 55.4 | 50.5 | viability, T/C [16]: 37.2%; viability, T/C [17]: 20.1%; viability, T/C [18]: 1.65%; viability, T/C [19]: 64.2%; viability, T/C [20]: 65.9%; viability, T/C [21]: 50%; viability, T/C [22]: 34.4%; viability, T/C [23]: 23.6%; viability, T/C [24]: 1.52%; viability, T/C [25]: 57.7%; viability, T/C [26]: 47.1%; viability, T/C [27]: 40.1%; viability, T/C [28]: 34.9%; viability, T/C [29]: 24.6%; viability, T/C [30]: 2.48%

From PubChem BioAssay AID1918935 (Molecular Pharmacology Branch, DTP, NCI, 2023)
